Results reported in US5482954A, “Signal transduction inhibitor triazole and diazole compounds” (priority 1994, dated 1996).
Values joined by “and” are separate entries in the source; they are usually repeats but may differ in a detail not shown here. Equal values may be shown once. Read-outs that look alike come from different tables or passages of the source.

Legend:
[1] = oral, nude mice; cited from earlier work
A2058 cells = assay: AMF-stimulated phosphatidyl inositol metabolism; assay type: cell-based, human
Experimental: This example illustrates the effect of compound 1 on the generation and release of phosphatidyl inositol from either A2058 cells (stimulated with autocrine motility factor) or CHOm5 cells (stimulated with carbachol).
A2058 cells were incubated with compound 1 (1.0 μg/mL) for 24 hr, then labelled overnight with [^3 H]inositol in serum-free, low inositol IMEM (LI-IMEM). Cells were then harvested, suspended, and incubated in LI-IMEM containing 10 mM LiCl for 30 min. The metabolism assay was initiated by the addition of either AMF or serum-free medium control to aliquots of 100,000 cells. The aliquots were incubated at 37° C. for 15 and 120 min, then washed twice with ice-cold PBS and extracted with chloroform:methanol (1:2). The total inositol phosphates were removed using Dowex anion exchange column chromatography eluted with ammonium formate 1.0 M/formic acid 0.1 M buffer. Total inositol phosphates and unincorporated total intracellular [^3 H]inositol were quantitated by […]. Data are expressed as a ratio of total inositol phosphates to total unincorporated [^3 H]inositol.

[2] = test system: 5R ras-transfected rat embryo fibroblast cell line; assay: Experimental pulmonary metastasis, tumor cells pretreated in vitro; assay type: in vivo, nude mice; conditions: cells treated overnight, 1-10 μM; 10 d
Experimental: This example illustrates the effect of selected compounds on the development of experimental pulmonary metastases, when the tumor cells are first incubated with the compound in vitro and subsequently injected into the tail vein of nude mice. In this example, both the 5R ras-transfected rat embryo fibroblast cell line and the HT-29 human colon cancer cell line were evaluated.
The 5R ras-transfected rat embryo fibroblast cell line forms confluent pulmonary metastases within 2-3 weeks after inoculation. For the experimental metastasis assay, 5R cells were treated in culture overnight with the test compounds (1-10 μM). After culture, the cells were harvested, washed and injected into the tail vein of six-week old nude mice. After 10 d, the mice were humanely sacrificed and the lungs were removed and fixed in Bouin's solution. The visible pulmonary metastases were counted.

[3] = Plasma levels in patients of phase I clinical study; assay type: in vivo; conditions: human, po
Text: Seven patients with solid tumor metastasis are undergoing treatment via oral administration of compound 1 under the FDA approved phase I clinical study. Table J provides data on the patients' response to this treatment. PT# is patient number. Response is the sum of the products of bidirectional measurements. No measurement means that while the disease was evaluable, it was not measureable. The concentration of the drug in the blood of the patients is well within the range which inhibits signal transduction in vitro and which inhibits tumor growth in vitro and in animals.
The concentration of compound 1 in the blood of patient #1 was from 1-2 μg/mL, while that of the other three patients was >3 μg/mL (>7 μM). These concentrations are well within the range which inhibit signal transduction in vitro and which inhibit tumor growth in animals.

[4] = test system: A2058 human melanoma tumors; assay: Oral treatment of subcutaneous xenografts; assay type: in vivo, nude mice
Experimental: This example illustrates the antitumor effect of compound 1 when administered orally to mice, following either subcutaneous inoculation of the mice with A2058 cells at two flank sites, intraperitoneal injection of OVCAR3 cells, or tail vein inoculation with 5R cells.
The antitumor effect of compound 1 was tested on groups of 10 nude mice which had been inoculated subcutaneously at two flank sites with 10^6 A2058 cells. Measureable tumors were observed within 14 days. On day 3 following tumor introduction, compound 1, diluted in PEG-400, or PEG-400 vehicle alone, was administered by gavage. Animals were monitored daily for toxicity, behavior, and extent of tumor. Weights and bidirectional measurements of A2058 tumor masses were determined three times per week.

CHOm5 cells = assay: Carbachol-stimulated arachidonic acid release; assay type: cell-based, Chinese hamster
Text: This example illustrates the effect of selected compounds on the release of arachidonic acid from carbachol-stimulated CHOm5 cells. Carbachol is a muscarinic agonist which in the muscarinic receptor transfected CHO cells stimulates the activation of phospholipase A2, resulting in arachidonic acid release and metabolism. Downstream metabolites of arachidonic acid, prostaglandins and leukotrienes are also second messengers.
The effect of compound 1 on arachidonic acid release from CHOm5 cells was determined by incubating the cells to isotopic equilibrium with labelled arachidonic acid, then washing the cells twice with 1 mL of serum-free media supplemented with 20 mM HEPES and 0.2% bovine serum albumin (fatty acid free) to trap the unincorporated labelled arachidonic acid, and then simultaneously adding carbachol (100 μM) and increasing concentrations of 1. After 15 min, the reaction was stopped by removing the incubation media which was then centrifuged at 10,000×g to eliminate any nonadherent cells.

[5] = test system: L-type voltage gated calcium channels; conditions: Hupe, et al.; cited from earlier work
5R cells = assay: Clonogenic (crystal violet) proliferation assay; assay type: cell-based, rat; conditions: 0-10 μg/mL, 96 hr
Experimental: Proliferation: Two independent methods were used to determine the effect of various compounds on cellular proliferation. The first method utilized [^3 H]thymidine labelling and was performed using A2058, 5R, OVCAR3, and MDA-231 cells. Because the potential effect of compound 1 on thymidine metabolism was unknown, a clonogenic assay was also used. This assay utilized crystal violet nuclear staining.
For the clonogenic assay, aliquots of 50,000 cells per well (24 well plates) were grown under standard tissue culture conditions in the presence of increasing doses or test compound (0-10 μg/mL) or vehicle control. After 96 hr, the cells were gently washed with PBS, fixed, and stained with 0.5% crystal violet nuclear stain in 20% methanol. Excess stain was removed with tap water and bound stain was eluted with an equal volume solution of 01N sodium citrate (pH 4.2) and absolute ethanol. Optical density (O.D.) of eluted crystal violet stain was determined at 540 nm. The results of dose-dependent inhibition of tumor cell proliferation by compound 1 are shown in FIG. 5, in which the data are expressed as percent of untreated control cell proliferation for each cell type. The degree of inhibition varied with the cell type and was maximal (76%) for the A2058 cell line.

cell adhesion to laminin = assay: Cell adhesion to laminin; assay type: cell-based; conditions: data not shown
Experimental: Cells were preincubated with compound 1 (0.03-10 μg/mL) for periods of 2 to 48 hr prior to the adhesion assay. In addition, compound 1 remained present during the assay. […] Maximal inhibition of adhesion was observed following overnight exposure of the cells to compound 1.

For NC(=O)c1nnn(Cc2cc(Cl)c(C(=O)c3ccc(Cl)cc3)c(Cl)c2)c1N [Compound 1], the “toxicity to normal tissues including connective tissue, mucosal surfaces, and bone marrow” value [1] is listed as “no toxicity to normal tissues”, the “inhibition of AMF-stimulated phosphatidyl inositol hydrolysis” value (A2058 cells; 1.0 μg/mL, 24 hr) is listed as “significantly inhibited” and the inhibition at 1 µg/mL (A2058 cells; Homo sapiens, A2058, 1.0 μg/mL, 24 hr, read-out: inhibition of AMF-stimulated phosphatidyl inositol hydrolysis) is listed as ~45%. The “effect on unstimulated cells (inositol phosphates)” value (A2058 cells; treated, unstimulated cells) was “no appreciable effect”, the “inhibition of pulmonary colonization” value [2] was 95% and the Cmax ([3]; 100 mg/m^2, patient 1, melanoma, 100 mg/m^2 qod, oral, read-out: PEAK LEVEL) was 1250 ng/mL. The Cmax ([3]; 100 mg/m^2, patient 2, colon, 100 mg/m^2 qd, oral, read-out: PEAK LEVEL) was 3610 ng/mL, the Cmax ([3]; 100 mg/m^2, patient 3, colon, 100 mg/m^2 qd, oral, read-out: PEAK LEVEL) was 3530 ng/mL and the Cmax ([3]; 100 mg/m^2, patient 4, ovary, 100 mg/m^2 qd, oral, read-out: PEAK LEVEL) was 3080 ng/mL. For the same molecule, the Cmax ([3]; 200 mg/m^2, patient 5, lung, 200 mg/m^2 qod, oral, read-out: PEAK LEVEL) was 1770 ng/mL, the Cmax ([3]; 200 mg/m^2, patient 6, carcinoid, 200 mg/m^2 qod, oral, read-out: PEAK LEVEL) was 1340 ng/mL and the Cmax ([3]; 200 mg/m^2, patient 7, colon, 200 mg/m^2 qod, oral, read-out: PEAK LEVEL) was 2830 ng/mL. The Cmax ([3]; other three patients of FIG. 19, read-out: concentration in the blood (peak/steady state)) was > 3000 ng/mL and > 7 µM, the Cmax ([3]; patient #1, read-out: concentration in the blood (peak/steady state)) was 1000 to 2000 ng/mL and the gross toxicity ([4]; 35 days of administration, and at necropsy) was “No gross toxicity”. The tumor necrosis ([4]; histologic evaluation of necropsy specimens) was “Marked necrosis”, the tumor growth ([4]; oral gavage from day 3) was “Significant growth arrest” and the tumor incidence ([4]; oral gavage from day 3) was “marked delay in tumor incidence”. For the same molecule, the IC50 (CHOm5 cells; Cricetulus griseus, 0.25 h, carbachol 100 μM, 15 min) was 5.2 ± 0.8 µM, the “Arachidonic Acid Release (% of Control)” value (CHOm5 cells; Table K) was 50.9 ± 9 % of Control and the “inhibition of L-type voltage gated calcium channels” value [5] was “inhibit”. For the same molecule, the “inhibition of tumor cell proliferation” value (5R cells) was “dose dependent inhibition of tumor cell proliferation” and the “cell adhesion to laminin” value (cell adhesion to laminin) was “decreased cell adhesion”.
